Test results from the NIST ThermoML archive (doi:10.1021/acs.jced.7b01053).
“And” between values parts separate entries of the source, which are not always exact repeats. Equal values may be shown once.

Test: mn = molality of the nth substance listed, in mol/kg
Details: 293 K, 100 kPa, Liquid, Alternating current cell with electrodes

CCCCC(=O)[O-].C[NH2+]CCO [2-hydroxy-N-methylethanaminium pentanoate] + O
Details | electrical conductivity [S/m]
m1 = 0.01138 | 0.049
m1 = 0.01396 | 0.062
m1 = 0.02431 | 0.098
m1 = 0.02742 | 0.113
m1 = 0.03923 | 0.149
m1 = 0.0421 | 0.165
m1 = 0.05224 | 0.191
m1 = 0.05579 | 0.209
m1 = 0.0607 | 0.269
m1 = 0.06705 | 0.238
m1 = 0.08075 | 0.293
m1 = 0.08328 | 0.31
m1 = 0.09553 | 0.335
m1 = 0.09605 | 0.33
m1 = 0.1092 | 0.375
m1 = 0.1095 | 0.408
m1 = 0.1224 | 0.445
m1 = 0.124 | 0.416
m1 = 0.1358 | 0.479
m1 = 0.1372 | 0.449
m1 = 0.1484 | 0.513
m1 = 0.1505 | 0.485
m1 = 0.1608 | 0.544
m1 = 0.1632 | 0.498
m1 = 0.1727 | 0.572
m1 = 0.1759 | 0.527
m1 = 0.1844 | 0.597
m1 = 0.1879 | 0.551
m1 = 0.1947 | 0.612
m1 = 0.1999 | 0.578
m1 = 0.2059 | 0.635
m1 = 0.2113 | 0.602
m1 = 0.2164 | 0.656
m1 = 0.2226 | 0.62
m1 = 0.226 | 0.677
m1 = 0.2329 | 0.642
m1 = 0.2359 | 0.697
m1 = 0.2427 | 0.663
m1 = 0.2451 | 0.709
m1 = 0.2523 | 0.682
m1 = 0.2541 | 0.727
m1 = 0.262 | 0.701
m1 = 0.2625 | 0.744
m1 = 0.2703 | 0.76
m1 = 0.2709 | 0.717
m1 = 0.2783 | 0.776
m1 = 0.2797 | 0.735
m1 = 0.2853 | 0.79
m1 = 0.2882 | 0.75
m1 = 0.2929 | 0.804
m1 = 0.2964 | 0.766
m1 = 0.2998 | 0.818
m1 = 0.304 | 0.781
m1 = 0.3065 | 0.83
m1 = 0.3114 | 0.794
m1 = 0.3129 | 0.842
m1 = 0.3184 | 0.808
m1 = 0.3191 | 0.853
m1 = 0.3249 | 0.868
m1 = 0.3255 | 0.819
m1 = 0.3307 | 0.88
m1 = 0.3317 | 0.834
m1 = 0.336 | 0.893
m1 = 0.3378 | 0.847
m1 = 0.3413 | 1.04
m1 = 0.3437 | 0.858
m1 = 0.3493 | 0.87
m1 = 0.3546 | 0.882

CC(=O)[O-].OCC[NH2+]CCO [2,2'-azanediylbis(ethanol) acetate] + O
Details | electrical conductivity
m1 = 0.02102 | 0.103 S/m
m1 = 0.02229 | 0.092 S/m
m1 = 0.0413 | 0.189 S/m
m1 = 0.04556 | 0.185 S/m
m1 = 0.06489 | 0.299 S/m
m1 = 0.06982 | 0.299 S/m
m1 = 0.08642 | 0.38 S/m
m1 = 0.0929 | 0.387 S/m
m1 = 0.11 | 0.471 S/m
m1 = 0.1182 | 0.481 S/m
m1 = 0.133 | 0.551 S/m
m1 = 0.1442 | 0.574 S/m
m1 = 0.1566 | 0.637 S/m
m1 = 0.17 | 0.664 S/m
m1 = 0.1784 | 0.715 S/m
m1 = 0.1932 | 0.749 S/m
m1 = 0.2015 | 0.79 S/m
m1 = 0.2176 | 0.822 S/m
m1 = 0.2233 | 0.87 S/m
m1 = 0.2404 | 0.892 S/m
m1 = 0.2459 | 0.947 S/m
m1 = 0.2633 | 0.966 S/m
m1 = 0.2671 | 1.01 S/m
m1 = 0.2853 | 1.03 S/m
m1 = 0.2885 | 1.08 S/m
m1 = 0.3076 | 1.11 S/m
m1 = 0.3083 | 1.14 S/m
m1 = 0.3285 | 1.16 S/m and 1.2 S/m
m1 = 0.3471 | 1.26 S/m
m1 = 0.3495 | 1.22 S/m
m1 = 0.3658 | 1.32 S/m
m1 = 0.3689 | 1.27 S/m
m1 = 0.3832 | 1.37 S/m
m1 = 0.3886 | 1.33 S/m
m1 = 0.4004 | 1.42 S/m
m1 = 0.4068 | 1.38 S/m
m1 = 0.4163 | 1.46 S/m
m1 = 0.4248 | 1.43 S/m
m1 = 0.4322 | 1.51 S/m
m1 = 0.4417 | 1.47 S/m
m1 = 0.4472 | 1.55 S/m
m1 = 0.4583 | 1.51 S/m
m1 = 0.4617 | 1.59 S/m
m1 = 0.4738 | 1.56 S/m
m1 = 0.4751 | 1.64 S/m
m1 = 0.4881 | 1.68 S/m
m1 = 0.489 | 1.61 S/m
m1 = 0.5005 | 1.73 S/m
m1 = 0.5032 | 1.65 S/m
m1 = 0.5129 | 1.76 S/m
m1 = 0.5172 | 1.68 S/m
m1 = 0.5243 | 1.8 S/m
m1 = 0.5302 | 1.7 S/m
m1 = 0.5355 | 1.83 S/m
m1 = 0.5436 | 1.73 S/m
m1 = 0.5561 | 1.76 S/m

CCCC(=O)[O-].C[NH2+]CCO [N-methyl-2-hydroxyethylammonium butanoate] + O
Details | electrical conductivity [S/m]
m1 = 0.01443 | 0.041
m1 = 0.01609 | 0.047
m1 = 0.03059 | 0.077
m1 = 0.03161 | 0.084
m1 = 0.04718 | 0.115
m1 = 0.04851 | 0.122
m1 = 0.06311 | 0.149
m1 = 0.06401 | 0.155
m1 = 0.08077 | 0.185
m1 = 0.08176 | 0.189
m1 = 0.09698 | 0.232
m1 = 0.09705 | 0.235
m1 = 0.1139 | 0.268
m1 = 0.1146 | 0.267
m1 = 0.1298 | 0.298
m1 = 0.1307 | 0.297
m1 = 0.1464 | 0.324
m1 = 0.1479 | 0.328
m1 = 0.1614 | 0.35
m1 = 0.1638 | 0.355
m1 = 0.1771 | 0.372
m1 = 0.1802 | 0.383
m1 = 0.1918 | 0.395
m1 = 0.1952 | 0.408
m1 = 0.2064 | 0.42
m1 = 0.2106 | 0.434
m1 = 0.2201 | 0.44
m1 = 0.2246 | 0.456
m1 = 0.2336 | 0.46
m1 = 0.2384 | 0.478
m1 = 0.2466 | 0.48
m1 = 0.2514 | 0.496
m1 = 0.2596 | 0.498
m1 = 0.2644 | 0.516
m1 = 0.2712 | 0.513
m1 = 0.2766 | 0.528
m1 = 0.283 | 0.525
m1 = 0.2887 | 0.542
m1 = 0.294 | 0.54
m1 = 0.2998 | 0.558
m1 = 0.3048 | 0.556
m1 = 0.311 | 0.572
m1 = 0.3148 | 0.571
m1 = 0.3214 | 0.586
m1 = 0.3247 | 0.583
m1 = 0.3317 | 0.6
m1 = 0.334 | 0.596
m1 = 0.3412 | 0.611
m1 = 0.343 | 0.607
m1 = 0.3505 | 0.624
m1 = 0.3515 | 0.619
m1 = 0.3593 | 0.634
m1 = 0.3599 | 0.629
m1 = 0.3677 | 0.639
m1 = 0.3679 | 0.646
m1 = 0.3758 | 0.656
